{"source": "patent US9932637B2", "about": "“Genetic polymorphisms associated with cardiovascular disorders and drug response, methods of detection and uses thereof” (CELERA CORPORATION, priority 2003, dated 2018)", "test_system": "patients with prior myocardial infarction (CARE study)", "assay": "CARE: association of SNPs with pravastatin treatment in RMI prevention (genotypic RR in placebo and statin strata; Table 10)", "format": "in vivo, human", "excerpt": "In order to identify genetic markers associated with acute coronary events (e.g. MI, stroke, unstable angina, congestive heart failure, etc.) or response to statin treatment for the prevention of coronary events, samples from the Cholesterol and Recurrent Events (CARE) study (a randomized multicentral double-blinded trial on secondary prevention of acute coronary events with pravastatin) (Sacks et al., 1991, Am. J. Cardiol. 68: 1436-1446) were genotyped. A well-documented myocardial infarction (MI) was one of the enrollment criteria for entry into the CARE study. Patients were enrolled in the CARE trial from 80 participating study centers. […] Patients were randomized to receive either 40 mg of pravastatin once daily or a matching placebo. The primary endpoint of the trial was death from coronary heart disease and the median duration of follow-up was 5.0 years (range, 4.0 to 6.2 years). […] Secondary endpoints of other related cardiovascular or metabolic disease events, and changes in clinical variables were also recorded in pravastatin-treated and placebo groups. All individuals included in the study had signed a written informed consent form and the study protocol was approved by the respective Institutional Review Boards (IRBs).\nFor genotyping SNPs in CARE patient samples, DNA was extracted from blood samples using conventional DNA extraction methods such as the QIA-amp kit from Qiagen. Genotypes were obtained on an ABI PRISM® 7900HT Sequence Detection PCR system (Applied Biosystems, Foster City, Calif.) by kinetic allele-specific PCR, similar to the method described by Germer et al. (Germer S., Holland M. J., Higuchi R. 2000, Genome Res. 10: 258-266).\nFor statistical analysis of association of SNPs with pravastatin treatment in RMI prevention (Table 10), effect sizes were estimated through genotypic RR, including 95% CIs. Homogeneity of Cochran-Mantel-Haenszel odds ratios was tested across pravastatin and placebo strata using the Wald test. […] (this adjustment supports independence of the SNP association from conventional risk factors). This table also provides the frequency data for the at risk allele in the columns labeled “Case Y PRIMER ALLELE Nucleotide Frequency” and “Control Y PRIMER ALLELE Nucleotide Frequency”. Allele frequencies for the cases and controls ≤0.49 indicate that the at-risk allele is the minor allele. Allele frequencies ≥0.50 indicate that the at-risk allele is the major allele. An example of a SNP associated with increased risk for an adverse cardiovascular event in the placebo group using a dominant genotypic test is hCV25644901. […] However, this same SNP was protective in the statin treated group with a RR of 0.58. An example of a SNP associated with an adverse cardiovascular event in the placebo group using the allelic association test is hCV16044337 with a RR of 1.87 for the homozygous AA genotype. This same genotype was protective in the statin treated group with a RR of 0.56.", "data": [{"smiles": "CC[C@H](C)C(=O)O[C@H]1C[C@H](O)C=C2C=C[C@H](C)[C@H](CC[C@@H](O)C[C@@H](O)CC(=O)O)[C@H]21", "note": "[pravastatin]", "values": [{"measurement": "RR (relative risk for RMI)", "setting": "HSPG2 hCV16172339, Het(TC) stratum, Statin vs Placebo, covars none", "value": 0.37}, {"measurement": "RR (relative risk for RMI)", "setting": "HSPG2 hCV16172339, Maj Hom (CC) stratum, Statin vs Placebo, covars none", "value": 0.80}, {"measurement": "RR (relative risk for RMI)", "setting": "HSPG2 hCV16172339, Statin stratum, het (TC)vs. ref(CC), covars none", "value": 0.66}, {"measurement": "RR (relative risk for RMI)", "setting": "IL4R hCV2351160, Het(GA) stratum, Statin vs Placebo, covars HX_SMOKE", "value": 0.57}, {"measurement": "RR (relative risk for RMI)", "setting": "IL4R hCV2351160, Maj Hom(AA) stratum, Statin vs Placebo, covars HX_SMOKE", "value": 0.85}, {"measurement": "RR (relative risk for RMI)", "setting": "IL4R hCV2351160, Min Hom(GG) stratum, Statin vs Placebo, covars HX_SMOKE", "value": 0.36}, {"measurement": "RR (relative risk for RMI)", "setting": "IL4R hCV2351160, Statin stratum, het(GA) vs. ref(AA), covars HX_SMOKE", "value": 0.76}, {"measurement": "RR (relative risk for RMI)", "setting": "IL4R hCV2351160, Statin stratum, hom (GG)vs. ref(AA), covars HX_SMOKE", "value": 0.61}, {"measurement": "RR (relative risk for RMI)", "setting": "IL4R hCV2769554, Het(GA) stratum, Statin vs Placebo", "value": 0.64}, {"measurement": "RR (relative risk for RMI)", "setting": "IL4R hCV2769554, Maj Hom(AA) stratum, Statin vs Placebo", "value": 0.59}, {"measurement": "RR (relative risk for RMI)", "setting": "IL4R hCV2769554, Min Hom(GG) stratum, Statin vs Placebo", "value": 1.56}, {"measurement": "RR (relative risk for RMI)", "setting": "IL4R hCV2769554, Statin stratum, het(GA) vs. ref(AA)", "value": 1.17}, {"measurement": "RR (relative risk for RMI)", "setting": "IL4R hCV2769554, Statin stratum, hom(GG) vs. ref(AA)", "value": 1.26}, {"measurement": "RR (relative risk for RMI)", "setting": "ITGA9 hCV3215409, Het(GA) stratum, Statin vs Placebo", "value": 0.86}, {"measurement": "RR (relative risk for RMI)", "setting": "ITGA9 hCV3215409, Maj Hom(AA) stratum, Statin vs Placebo", "value": 0.84}, {"measurement": "RR (relative risk for RMI)", "setting": "ITGA9 hCV3215409, Min Hom(GG) stratum, Statin vs Placebo", "value": 0.30}, {"measurement": "RR (relative risk for RMI)", "setting": "ITGA9 hCV3215409, Statin stratum, het (GA)vs. ref(AA)", "value": 1.22}, {"measurement": "RR (relative risk for RMI)", "setting": "ITGA9 hCV3215409, Statin stratum, hom(GG) vs. ref(AA)", "value": 0.54}, {"measurement": "RR (relative risk for RMI)", "setting": "LAMA2 hCV16047108, Het (GA) stratum, Statin vs Placebo", "value": 1.31}, {"measurement": "RR (relative risk for RMI)", "setting": "LAMA2 hCV16047108, Maj Hom (AA) stratum, Statin vs Placebo", "value": 0.63}, {"measurement": "RR (relative risk for RMI)", "setting": "LAMA2 hCV16047108, Statin stratum, het(GA) vs. ref (AA)", "value": 2.02}, {"measurement": "RR (relative risk for RMI)", "setting": "LAMA2 hCV16047108, Statin stratum, hom(GG) vs. ref (AA)", "value": 4.97}, {"measurement": "RR (relative risk for RMI)", "setting": "LPA hCV11225994, Het(GA) stratum, Statin vs Placebo", "value": 1.02}, {"measurement": "RR (relative risk for RMI)", "setting": "LPA hCV11225994, Maj Hom(GG) stratum, Statin vs Placebo", "value": 0.62}, {"measurement": "RR (relative risk for RMI)", "setting": "LPA hCV11225994, Min Hom(AA) stratum, Statin vs Placebo", "value": 1.33}, {"measurement": "RR (relative risk for RMI)", "setting": "LPA hCV11225994, Statin stratum, het(GA) vs. ref (GG)", "value": 1.06}, {"measurement": "RR (relative risk for RMI)", "setting": "LPA hCV11225994, Statin stratum, hom (AA)vs. ref(GG)", "value": 2.34}, {"measurement": "RR (relative risk for RMI)", "setting": "MACF1 hCV3112686, Het(GC) stratum, Statin vs Placebo, covars HX_SMOKE", "value": 0.71}, {"measurement": "RR (relative risk for RMI)", "setting": "MACF1 hCV3112686, Maj Hom(CC) stratum, Statin vs Placebo, covars HX_SMOKE", "value": 0.96}, {"measurement": "RR (relative risk for RMI)", "setting": "MACF1 hCV3112686, Min Hom(GG) stratum, Statin vs Placebo, covars HX_SMOKE", "value": 0.42}, {"measurement": "RR (relative risk for RMI)", "setting": "MACF1 hCV3112686, Statin stratum, het(GC) vs. ref(CC), covars HX_SMOKE", "value": 0.98}, {"measurement": "RR (relative risk for RMI)", "setting": "MACF1 hCV3112686, Statin stratum, hom(GG) vs. ref(CC), covars HX_SMOKE", "value": 0.60}, {"measurement": "RR (relative risk for RMI)", "setting": "NPC1 hCV25472673, Het(TC) stratum, Statin vs Placebo, covars none", "value": 0.61}, {"measurement": "RR (relative risk for RMI)", "setting": "NPC1 hCV25472673, Maj Hom(TT) stratum, Statin vs Placebo, covars none", "value": 1.08}, {"measurement": "RR (relative risk for RMI)", "setting": "NPC1 hCV25472673, Statin stratum, het(TC) vs. ref(TT), covars none", "value": 0.76}, {"measurement": "RR (relative risk for RMI)", "setting": "NPC1 hCV25472673, Statin stratum, hom(CC) vs. ref(TT), covars none", "value": 0.87}, {"measurement": "RR (relative risk for RMI)", "setting": "PLAB hCV7494810, Het(GC) stratum, Statin vs Placebo, covars HX_SMOKE", "value": 0.46}, {"measurement": "RR (relative risk for RMI)", "setting": "PLAB hCV7494810, Maj Hom(CC) stratum, Statin vs Placebo, covars HX_SMOKE", "value": 0.94}, {"measurement": "RR (relative risk for RMI)", "setting": "PLAB hCV7494810, Min Hom(GG) stratum, Statin vs Placebo, covars HX_SMOKE", "value": 0.75}, {"measurement": "RR (relative risk for RMI)", "setting": "PLAB hCV7494810, Statin stratum, het(GC) vs. ref(CC), covars HX_SMOKE", "value": 0.67}, {"measurement": "RR (relative risk for RMI)", "setting": "PLAB hCV7494810, Statin stratum, hom(GG) vs. ref(CC), covars HX_SMOKE", "value": 0.68}, {"measurement": "RR (relative risk for RMI)", "setting": "PPOX hCV25922816, Het(GA) stratum, Statin vs Placebo", "value": 0.42}, {"measurement": "RR (relative risk for RMI)", "setting": "PPOX hCV25922816, Maj Hom(GG) stratum, Statin vs Placebo", "value": 0.82}, {"measurement": "RR (relative risk for RMI)", "setting": "PPOX hCV25922816, Statin stratum, het(GA) vs. ref(GG)", "value": 0.64}, {"measurement": "RR (relative risk for RMI)", "setting": "PTPRJ hCV8895373, Het(GA) stratum, Statin vs Placebo", "value": 1.07}, {"measurement": "RR (relative risk for RMI)", "setting": "PTPRJ hCV8895373, Maj Hom(GG) stratum, Statin vs Placebo", "value": 0.60}, {"measurement": "RR (relative risk for RMI)", "setting": "PTPRJ hCV8895373, Min Hom(AA) stratum, Statin vs Placebo", "value": 1.62}, {"measurement": "RR (relative risk for RMI)", "setting": "PTPRJ hCV8895373, Statin stratum, het(GA) vs. ref (GG)", "value": 1.43}, {"measurement": "RR (relative risk for RMI)", "setting": "PTPRJ hCV8895373, Statin stratum, hom(AA)vs. ref(GG)", "value": 1.14}, {"measurement": "RR of adverse cardiovascular event in the statin treated group", "setting": "hCV16044337, homozygous AA genotype", "value": 0.56}, {"measurement": "RR of adverse cardiovascular event in the statin treated group", "setting": "hCV25644901, dominant genotype (GG or GA)", "value": 0.58}]}]}
